Converted amounts (≈) assume the structure as drawn. The source made the active and inactive calls. No cut-off for these calls is given here. Where a SMILES comes first, the peptide text is derived from it. Bridges are numbered along the chain shown (N, C = ends). [ ]: non-standard residue; d: D form. d(aIle) = CC[C@H](C)[C@@H](N)C(=O)O; dNMeF = CN[C@H](Cc1ccccc1)C(=O)O; Orn = NCCC[C@H](N)C(=O)O
Key:
Assay type in all cases: functional
Bacillus subtilis = test: Antibacterial activity against Bacillus subtilis ATCC 6051 after 24 hrs by broth microdilution method; conditions: ATCC 6051, 24 h
Escherichia coli = test: Antibacterial activity against Escherichia coli ATCC 25922 after 24 hrs by broth microdilution method
Staphylococcus aureus = test: Antibacterial activity against Staphylococcus aureus ATCC 29213 after 24 hrs by broth microdilution method; conditions: ATCC 29213, 24 h
Pseudomonas aeruginosa = test: Antibacterial activity against Pseudomonas aeruginosa ATCC 27853 after 24 hrs by broth microdilution method

Row | MIC (Bacillus subtilis) [µg/mL] | MIC (Escherichia coli; ATCC 25922, 24 h) [µg/mL] | MIC (Staphylococcus aureus) [µg/mL] | MIC (Pseudomonas aeruginosa; ATCC 27853, 24 h) [µg/mL] | MIC (Escherichia coli) | MIC (Pseudomonas aeruginosa) | Structure (SMILES)
1 | 1 (≈ 0.761 µM) | 32 (≈ 24.3 µM) | 4 (≈ 3.04 µM) | 128 (≈ 97.4 µM) | – | – | CC[C@H](C)[C@H](NC(=O)[C@@H](Cc1ccccc1)NC)C(=O)N[C@@H](CCCCN)C(=O)N[C@H](CCC(N)=O)C(=O)N[C@@H](C(=O)N[C@H](C(=O)N[C@@H](CO)C(=O)N[C@H]1C(=O)N[C@@H](CCCCN)C(=O)N[C@@H](CCCCN)C(=O)N[C@@H]([C@@H](C)CC)C(=O)O[C@H]1C)[C@@H](C)CC)[C@@H](C)CC (stereo in doubt)
2 | 0.5 (≈ 0.397 µM) | 32 (≈ 25.4 µM) | 2 (≈ 1.59 µM) | 64 (≈ 50.8 µM) | – | – | CC[C@H](C)[C@H](NC(=O)[C@@H](Cc1ccccc1)NC)C(=O)N[C@@H](CO)C(=O)N[C@H](CCC(N)=O)C(=O)N[C@@H](C(=O)N[C@H](C(=O)N[C@@H](CO)C(=O)N[C@H]1C(=O)N[C@@H](CCCCN)C(=O)N[C@@H](CCCN)C(=O)N[C@@H]([C@@H](C)CC)C(=O)O[C@H]1C)[C@@H](C)CC)[C@@H](C)CC
3 | 4 (≈ 3.22 µM) | 64 (≈ 51.5 µM) | 16 (≈ 12.9 µM) | 64 (≈ 51.5 µM) | – | – | CC[C@H](C)[C@H](NC(=O)[C@@H](Cc1ccccc1)NC)C(=O)N[C@@H](CCCCN)C(=O)N[C@H](CCCCN)C(=O)N[C@@H](C(=O)N[C@H](C(=O)N[C@@H](CO)C(=O)N[C@H]1C(=O)N[C@@H](C)C(=O)N[C@@H](CCCN)C(=O)N[C@@H]([C@@H](C)CC)C(=O)O[C@H]1C)[C@@H](C)CC)[C@@H](C)CC (H-[dNMeF]IK[dK][d(aIle)]IS[dT]A[Orn]I; ester 8-C)
4 | 4 (≈ 3.11 µM) | – | 64 (≈ 49.7 µM) | – | inactive | inactive | CC[C@H](C)[C@H](NC(=O)[C@@H](Cc1ccccc1)NC)C(=O)N[C@@H](CO)C(=O)N[C@H](CCC(N)=O)C(=O)N[C@@H](C(=O)N[C@H](C(=O)N[C@@H](CO)C(=O)N[C@H]1C(=O)N[C@@H](C)C(=O)N[C@@H](CCN=C(N(C)C)N(C)C)C(=O)N[C@@H]([C@@H](C)CC)C(=O)O[C@H]1C)[C@@H](C)CC)[C@@H](C)CC
5 | 4 (≈ 3.01 µM) | – | 64 (≈ 48.2 µM) | – | inactive | inactive | CC[C@H](C)[C@H](NC(=O)[C@@H](Cc1ccccc1)NC)C(=O)N[C@@H](CO)C(=O)N[C@H](CCC(N)=O)C(=O)N[C@@H](C(=O)N[C@H](C(=O)N[C@@H](CO)C(=O)N[C@H]1C(=O)N[C@@H](C)C(=O)N[C@@H](CC/N=C(\N(C)C)N2CCOCC2)C(=O)N[C@@H]([C@@H](C)CC)C(=O)O[C@H]1C)[C@@H](C)CC)[C@@H](C)CC
6 | 4 (≈ 3.01 µM) | 32 (≈ 24.1 µM) | 32 (≈ 24.1 µM) | 32 (≈ 24.1 µM) | – | – | CC[C@H](C)[C@H](NC(=O)[C@@H](Cc1ccccc1)NC)C(=O)N[C@@H](CCCCN)C(=O)N[C@H](CCCCN)C(=O)N[C@@H](C(=O)N[C@H](C(=O)N[C@@H](CCCCN)C(=O)N[C@H]1C(=O)N[C@@H](C)C(=O)N[C@@H](CCCNC(=N)N)C(=O)N[C@@H]([C@@H](C)CC)C(=O)O[C@H]1C)[C@@H](C)CC)[C@@H](C)CC
7 | 4 (≈ 3.04 µM) | 32 (≈ 24.3 µM) | 256 (≈ 195 µM) | 64 (≈ 48.7 µM) | – | – | CC[C@H](C)[C@H](NC(=O)[C@@H](Cc1ccccc1)NC)C(=O)N[C@@H](CO)C(=O)N[C@H](CCCCN)C(=O)N[C@@H](C(=O)N[C@H](C(=O)N[C@@H](CCCCN)C(=O)N[C@H]1C(=O)N[C@@H](CCCCN)C(=O)N[C@@H](CCCCN)C(=O)N[C@@H]([C@@H](C)CC)C(=O)O[C@H]1C)[C@@H](C)CC)[C@@H](C)CC (H-[dNMeF]IS[dK][d(aIle)]IK[dT]KKI; ester 8-C)
8 | 4 (≈ 3.11 µM) | 64 (≈ 49.8 µM) | 32 (≈ 24.9 µM) | 64 (≈ 49.8 µM) | – | – | CC[C@H](C)[C@H](NC(=O)[C@@H](Cc1ccccc1)NC)C(=O)N[C@@H](CCCCN)C(=O)N[C@H](CCCCN)C(=O)N[C@@H](C(=O)N[C@H](C(=O)N[C@@H](CO)C(=O)N[C@H]1C(=O)N[C@@H](C)C(=O)N[C@@H](CCCNC(=N)N)C(=O)N[C@@H]([C@@H](C)CC)C(=O)O[C@H]1C)[C@@H](C)CC)[C@@H](C)CC
9 | 4 (≈ 3.25 µM) | 64 (≈ 52 µM) | 4 (≈ 3.25 µM) | 64 (≈ 52 µM) | – | – | CC[C@H](C)[C@H](NC(=O)[C@@H](Cc1ccccc1)NC)C(=O)N[C@@H](CN)C(=O)N[C@H](CCC(N)=O)C(=O)N[C@@H](C(=O)N[C@H](C(=O)N[C@@H](CO)C(=O)N[C@H]1C(=O)N[C@@H](CN)C(=O)N[C@@H](CCCCN)C(=O)N[C@@H]([C@@H](C)CC)C(=O)O[C@H]1C)[C@@H](C)CC)[C@@H](C)CC
10 | 2 (≈ 1.61 µM) | 64 (≈ 51.5 µM) | 2 (≈ 1.61 µM) | 256 (≈ 206 µM) | – | – | CC[C@H](C)[C@H](NC(=O)[C@@H](Cc1ccccc1)NC)C(=O)N[C@@H](CCCCN)C(=O)N[C@H](CCC(N)=O)C(=O)N[C@@H](C(=O)N[C@H](C(=O)N[C@@H](CO)C(=O)N[C@H]1C(=O)N[C@@H](C)C(=O)N[C@@H](CCCN)C(=O)N[C@@H]([C@@H](C)CC)C(=O)O[C@H]1C)[C@@H](C)CC)[C@@H](C)CC

Reference: ChEMBL document CHEMBL4038347, “Converting Teixobactin into a Cationic Antimicrobial Peptide (AMP)” (2017)
